Data as given in US9248109B2, “High penetration prodrug compositions of peptides and peptide-related compounds” (priority 2009, dated 2016).
Structures can show the parent of a compound that is named as a salt. Non-standard residues stand in square brackets, D forms with d. Residues, ends and D or L forms follow the SMILES beside them. *: point of attachment. Arg(NO2) = N=C(NCCC[C@H](N)C(=O)O)N[N+](=O)[O-]; X1 = CCCCO*

Tested on: Sprague Dawley rats
Test: Anti-obese activity, transdermal, female Sprague Dawley rats 15 weeks old (first experiment)
Format: in vivo, rat
Conditions: for Weight (g) (Day 1): baseline; for effect on body weights of rats (in words): 10, 1 or 0.3 mg/kg transdermal twice per day for 30 days; for effect on food intakes and body weights (in words): administrated transdermally, as low as 0.3 mg/kg in rat, SD rats and DB/DB mice
Method: (§1) In a first experiment, 40 female Sprague Dawley rats (15 weeks old, 318-346 g) were divided into 4 groups. In group A, 0.2 ml of water was administered to the back of rat (n=10) twice per day for 30 days. In Groups B, C, and D, 10 mg/kg, 1 mg/kg, or 0.3 mg/kg of H-Val-Pro-Gly-Pro-Arg(NO2)—OCH(CH3)2.HCl(SEQ ID NO: 197) in 0.2 ml of water was administered transdermally to the back of rat (n=10) twice per day for 30 days respectively.
as §1, with “Dawley (SD)” for “Dawley”, “315-340” for “318-346”, “H-Val-Pro-Gly-Pro-Arg(diAc)-OCH2CH2CH2CH3.HCl(SEQ” for “H-Val-Pro-Gly-Pro-Arg(NO2)—OCH(CH3)2.HCl(SEQ”, “198)” for “197)”
as §1, with “Dawley (SD)” for “Dawley”, “320-345” for “318-346”, “H-Ala-Pro-Gly-Pro-Arg(NO2)—OCH2CH2CH2CH3.HCl(SEQ” for “H-Val-Pro-Gly-Pro-Arg(NO2)—OCH(CH3)2.HCl(SEQ”, “199)” for “197)”
as §1, with “Dawley (SD)” for “Dawley”, “320-350” for “318-346”, “H-Val-Pro-Asp(OEt)-Pro-Arg(NO2)—OCH2CH2CH2CH3.HCl(SEQ” for “H-Val-Pro-Gly-Pro-Arg(NO2)—OCH(CH3)2.HCl(SEQ”, “200)” for “197)”

[1] = 0.3 mg/kg transdermal twice per day for 30 days
[2] = 0.3 mg/kg transdermal twice per day
[3] = 1 mg/kg transdermal twice per day for 30 days
[4] = 1 mg/kg transdermal twice per day
[5] = 10 mg/kg transdermal twice per day for 30 days
[6] = 10 mg/kg transdermal twice per day

Row | Molecule | Food intake (per day & per rat) [1] | Weight (g) (Day 30) [1] | Weight (g) (Day 1) [2] | Food intake (per day & per rat) [3] | Weight (g) (Day 30) [3] | Weight (g) (Day 1) [4] | Food intake (per day & per rat) [5] | Weight (g) (Day 30) [5] | Weight (g) (Day 1) [6] | effect on body weights of rats (in words) | effect on food intakes and body weights (in words)
1 | CCCCOC(=O)[C@H](CCCNC(=N)N[N+](=O)[O-])NC(=O)[C@@H]1CCCN1C(=O)CNC(=O)[C@@H]1CCCN1C(=O)[C@H](C)N [H-Ala-Pro-Gly-Pro-Arg(NO2)—OCH2CH2CH2CH3.HCl] (HELM PEPTIDE1{A.P.G.P.[N=C(NCCC[C@H](N[*:1])C(=O)[*:2])N[N+](=O)[O-]].[CCCCO[*:1]]}$$$$V2.0) | 22.7 ± 1.8 | 335.1 ± 4.8 | 335.1 ± 6.2 | 21.8 ± 2.3 | 323.7 ± 4.4 | 333.6 ± 7.8 | 20.8 ± 2.4 | 315.4 ± 3.8 | 332.2 ± 7.4 | reduced body weights of rats effectively | reduced food intakes and body weights
2 | CCCCOC(=O)[C@H](CCCNC(=N)N[N+](=O)[O-])NC(=O)[C@@H]1CCCN1C(=O)[C@H](CC(=O)OCC)NC(=O)[C@@H]1CCCN1C(=O)[C@@H](N)C(C)C [H-Val-Pro-Asp(OEt)-Pro-Arg(NO2)—OCH2CH2CH2CH3.HCl] (H-VPD(OEt)P[Arg(NO2)]-X1) | 22.7 ± 2.5 | 333.1 ± 3.9 | 333.5 ± 7.1 | 21.9 ± 2.7 | 326.8 ± 2.8 | 329.8 ± 7.8 | 20.1 ± 3.2 | 318.1 ± 3.9 | 330.5 ± 8.2 | reduced body weights of rats effectively | reduced food intake and body weights
3 | CC(C)OC(=O)[C@H](CCCNC(=N)N[N+](=O)[O-])NC(=O)[C@@H]1CCCN1C(=O)CNC(=O)[C@@H]1CCCN1C(=O)[C@@H](N)C(C)C [H-Val-Pro-Gly-Pro-Arg(NO2)-OCH(CH3)2•HCl, H-Val-Pro-Gly-Pro-Arg(NO2)—OCH(CH3)2.HCl] (HELM PEPTIDE1{V.P.G.P.[N=C(NCCC[C@H](N[*:1])C(=O)[*:2])N[N+](=O)[O-]].[CC(C)O[*:1]]}$$$$V2.0) | 22.1 ± 2.5 | 322.1 ± 4.3 | 335.4 ± 5.2 | 21.1 ± 2.7 | 313.7 ± 5.1 | 333.1 ± 5.1 | 19.9 ± 2.9 | 308.4 ± 4.5 | 331.7 ± 6.2 | reduced body weights of rats effectively | reduced food intakes and body weights
4 | H-Val-Pro-Gly-Pro-Arg(diAc)-OCH2CH2CH2CH3.HCl | 23.0 ± 1.7 | 347.1 ± 5.7 | 333.1 ± 6.1 | 21.9 ± 1.9 | 336.7 ± 5.6 | 331.6 ± 6.6 | 20.9 ± 2.2 | 329.2 ± 4.8 | 334.1 ± 7.5 | reduced body weights of rats effectively | reduced food intakes and body weights
